Data set [1] has as its target T1, VBC (VHL, elongin B, elongin C) (Homo sapiens, UniProt P40337).
T1 construct: VHL (54–213), ElonginC (17–112) and; His6 (N, cleaved yes); made in house; host or cells: Escherichia coli BL21(DE3)
Kind of data set: ITC of peptides and ligands against VBC. Format: binding. To be noted: for Kd / ΔG / ΔH / –TΔS: ITC, 25°C; for Kd: mean ± s.e.m.; for fold difference in binding affinity compared to VH032: relative to VH032 Kd.

Another data set in a line: Plasma stability. Type of data set: in vitro ADME. To be noted: 37 °C, pH 7.4, read-out: plasma stability T1/2. On the procedure:
(§1) Test compound (10 µM) was incubated in pre-warmed plasma at 37 ᵒC (that is buffered to pH 7.4 in ratio of 70:30 plasma to buffer). Immediately, at time zero, then at 30, 60, 120, and 180 min, a 50 µL aliquot of the incubation mixture was removed and mixed with 200 µL acetonitrile containing Donepezil as the internal standard (50 ng/ml) to stop the reaction. The samples were centrifuged to sediment the precipitated protein and the plates then sealed prior to UPLC-MS/MS analysis using a Quattro Premier XE (Waters Corporation, USA).
(§2) XLfit (IDBS, UK) was used to calculate the exponential decay and consequently the rate constant (k) from the ratio of peak area of test compound to internal standard at each time point. The half-life was calculated for each test compound from the rate by using the following calculation:
(§3) Test compound (0.5 µM) was incubated with female CD1 mouse liver microsomes (Xenotech LLC TM; 0.5 mg/mL in 50mM potassium phosphate buffer, pH 7.4) and the reaction started with addition of excess NADPH (8 mg/mL 50 mM potassium phosphate buffer, pH 7.4). […]
(§4) from the ratio of peak area of test compound to internal standard at each time point. The rate of intrinsic clearance (CLi) of each test compound was then calculated using the following calculation: […]

The nature of data set [2]: Intrinsic clearance in mouse liver microsomes. To be noted: 0.5 µM. Type of data set: in vitro ADME. On the procedure: as §1, §2, §3, §4
On the technique in general: Liver microsomes are vesicles of endoplasmic reticulum, rich in cytochrome P450 enzymes.

A short description of data set [3]: Parallel artificial membrane permeability assay (PAMPA). Format: in vitro ADME. To be noted: pH 7.4, 10 µM. How it is done:
Parallel Artificial Membrane Permeability Assay (PAMPA)
PAMPA was performed using a 96-well pre-coated BD Gentest™ PAMPA plate (BD Biosciences, U.K.). Each well was divided into two chambers; donor and acceptor, separated by a lipid-oil-lipid tri-layer constructed in a porous filter. The effective permeability, Pe, of the compound was measured at pH 7.4. Stock solutions (5 mM) of the compound were prepared in DMSO. The compound was then further diluted to 10 µM in phosphate buffered saline at pH 7.4. The final DMSO concentration did not exceed 5% v/v. The compound dissolved in phosphate buffered saline was then added to the donor side of the membrane and phosphate buffered saline without compound was added to the acceptor side. The PAMPA plate was left at room temperature for 5 h. After which time, an aliquot (100 µl) was then removed from both acceptor and donor compartments and mixed with acetonitrile (80 µl) containing an internal standard. The samples were centrifuged (10 min, 5 °C, 3270 g) to sediment precipitated protein and sealed prior to UPLC-MS/MS analysis using a Quattro Premier XE (Waters Corp, USA). Pe was calculated as shown in the below equation: […]
C D(t)= peak area of compound present in donor well at time t = 18000 s Recovery of compound from donor and acceptor wells was calculated and data was only accepted when recovery exceeded 70%.

Another data set can be described thus: CHI Log D determination. Type of data set: physicochemical. To be noted: reversed-phase HPLC, Phenomenex Luna C18 column, pH 7.4; read-out: CHI LogD7.4. How it is done: Using a fast gradient, reverse-phase HPLC method to determine the chromatographic hydrophobicity index (CHI) was determined as described by Camurri and Zaramella (ref. 26) and Valko et al. (ref. 27).
Briefly, by plotting the retention time of a set of reference compounds against known CHI values. The CHI value of test compounds was then calculated according to their retention time.
Test compounds were prepared as 0.5 mM solutions in 50:50 acetonitrile:water and analysed by reversed-phase HPLC-UV (wavelength 254 nm) using a Phenomenex Luna C18 100Å 150 x 4.6mm 5 micron column with a gradient of aqueous phase (50 mM ammonium acetate, pH 7.4) and mobile

In a further data set the test system is MV4;11 cells. Briefly: CellTiter-Glo cell viability assay. Format: cell-based. The note with it: for EC50: MV4-11, 72 h. On the procedure:
MV4;11 cells (15000 cells per well) were dosed for 72 h with compounds serially diluted (1:3) on a clear-bottom 384-well plate with a final concentration of 0.05% (v/v) DMSO. After treatment, Promega CellTiter-Glo luminescent cell viability assay (G7572) was added to the cells according to the manufacturer instructions. The signal from each well was recorded on a BM G Labtech Pherastar luminescence plate reader with recommended settings.
Normalized data were analyzed and plotted with Graphpad Prism software in the ‘log(inhibitor) vs. response -- Variable slope (four parameters)’ module. EC50 values of each test compound were […]
On the technique in general: In ATP-based viability assays light output follows the ATP content of the culture.

The next data set relates to A549 cells. Briefly: A549 colony-formation assay. Type of data set: cell-based. The note with it: 7 days, crystal violet. On the procedure: A549 Colony-Formation Assay
A549 cells were seeded in clear, Nunc™ Edge 2.0 96 -w ell plates (Thermo Scientific) at 1000 cells per well and incubated at 37°C in DMEM. After 24 h cells were treated with test compounds from 10 µM to 100 nM , with a final DM SO of 0.1%. The cells were left to grow until DM SO -treated wells reached ~100% confluence (~8 days), at which point they were washed with PBS, fixed with 100% MeOH (30 min 4°C), stained with 0.1% crystal violet (30 min at r.t.) and left to dry overnight. Once dried plates were imaged on an Epson Perfection V800 scanner, at a resolution of 1200 DPI and in 48 -bit colour.
For dose-response curves, crystal-violet dye was extracted by the addition of 200 µl 1% SDS to each well, and incubation for 3 h at r.t. The absorbance at 595nm of each well was measured on a Pherastar FS (BMG), normalised for each compound and plotted against compound concentration.
(1 picture or pasted object on this page, not shown here)

Details of data set [4]: method as in Frost et al. 40. The note with it: ref Frost et al. 40; cited from earlier work.
On the set-up of data set [5]: method as in Frost et al. 40. The note with it: ref Frost et al. 40; cited from earlier work. The source holds these as a separate data set.
On the set-up of data set [6]: method as in Frost et al. 40. To be noted: ref Frost et al. 40; cited from earlier work. The source holds these as a separate data set.

The structures appear in SMILES notation. Like-named read-outs stand apart in the source and are kept apart here. Marks after values point to notes of the source that are not given here. *1 amine or outer side, *2 acyl side, *3 side chain or, on linkers, in order; H or OH if unused. Where a SMILES comes first, the peptide text is derived from it. [ ]: non-standard residue; d: D form. X1 = O=C([C@@H]1[C@@H](F)[C@@H](O)CN1[*:1])[*:2]; X2 = O=C([C@@H]1[C@H](F)[C@@H](O)CN1[*:1])[*:2]

One may read the Kd as the concentration at which binding is half-saturated. One may read the Papp as a coefficient for how fast a substance crosses the barrier.

T1 sequence (P40337 54-213): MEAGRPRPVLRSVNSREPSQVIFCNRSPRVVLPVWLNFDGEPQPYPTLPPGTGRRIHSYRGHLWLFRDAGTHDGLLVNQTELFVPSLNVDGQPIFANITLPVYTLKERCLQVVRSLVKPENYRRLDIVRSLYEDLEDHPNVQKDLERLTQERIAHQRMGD
T1 sequence (Q15369 17-112 partner limits assumed): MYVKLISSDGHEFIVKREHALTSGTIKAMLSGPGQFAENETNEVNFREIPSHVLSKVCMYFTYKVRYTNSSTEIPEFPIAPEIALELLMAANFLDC
T1 sequence (Q15370 1-104 partner limits assumed): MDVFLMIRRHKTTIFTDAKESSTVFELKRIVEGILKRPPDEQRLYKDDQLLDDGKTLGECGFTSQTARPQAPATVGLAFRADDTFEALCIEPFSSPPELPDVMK

As for `CC[C@H](C)[C@H](NC(=O)[C@H](Cc1ccc(O)cc1)NC(=O)[C@@H]1[C@@H](F)[C@@H](O)CN1C(=O)[C@H](C)NC(=O)[C@H](CC(C)C)NC(=O)[C@H](C)NC(=O)[C@H](CCC(=O)O)NC(=O)[C@@H](N)CC(=O)O)C(=O)N1CCC[C@H]1C(=O)N[C@@H](CCSC)C(=O)N[C@@H](CC(=O)O)C(=O)N[C@@H](CC(=O)O)C(=O)N[C@@H](CC(=O)O)C(=O)N[C@@H](Cc1ccccc1)C(=O)N[C@@H](CCC(N)=O)C(=O)N[C@@H](CC(C)C)C(=O)N[C@@H](CCCNC(=N)N)C(=O)N[C@@H](CO)C(=O)N[C@@H](Cc1ccccc1)C(N)=O` [13a] (H-DEALA[X1]YIPMDDDFQLRSF-NH2), in [1], binding was characterised by a dissociation constant (Kd) of 12 ± 2 nM.

As for `CC[C@H](C)[C@H](NC(=O)[C@H](Cc1ccc(O)cc1)NC(=O)[C@@H]1[C@H](F)[C@@H](O)CN1C(=O)[C@H](C)NC(=O)[C@H](CC(C)C)NC(=O)[C@H](C)NC(=O)[C@H](CCC(=O)O)NC(=O)[C@@H](N)CC(=O)O)C(=O)N1CCC[C@H]1C(=O)N[C@@H](CCSC)C(=O)N[C@@H](CC(=O)O)C(=O)N[C@@H](CC(=O)O)C(=O)N[C@@H](CC(=O)O)C(=O)N[C@@H](Cc1ccccc1)C(=O)N[C@@H](CCC(N)=O)C(=O)N[C@@H](CC(C)C)C(=O)N[C@@H](CCCNC(=N)N)C(=O)N[C@@H](CO)C(=O)N[C@@H](Cc1ccccc1)C(N)=O` [13b] (H-DEALA[X2]YIPMDDDFQLRSF-NH2), binding in data set [1] was characterised by a dissociation constant (Kd) of 52 ± 3 nM.

As to `CC[C@H](C)[C@H](NC(=O)[C@H](Cc1ccc(O)cc1)NC(=O)[C@@H]1C[C@@H](O)CN1C(=O)[C@H](C)NC(=O)[C@H](CC(C)C)NC(=O)[C@H](C)NC(=O)[C@H](CCC(=O)O)NC(=O)[C@@H](N)CC(=O)O)C(=O)N1CCC[C@H]1C(=O)N[C@@H](CCSC)C(=O)N[C@@H](CC(=O)O)C(=O)N[C@@H](CC(=O)O)C(=O)N[C@@H](CC(=O)O)C(=O)N[C@@H](Cc1ccccc1)C(=O)N[C@@H](CCC(N)=O)C(=O)N[C@@H](CC(C)C)C(=O)N[C@@H](CCCNC(=N)N)C(=O)N[C@@H](CO)C(=O)N[C@@H](Cc1ccccc1)C(N)=O` [13c, reference compound], binding in [1] was put at a Kd of 11 ± 1 nM.

With `CC(=O)N[C@H](C(=O)N1C[C@H](O)[C@H](F)[C@H]1C(=O)NCc1ccc(-c2scnc2C)cc1)C(C)(C)C` [14a], the half-life at 10 µM in the data set “Plasma stability” was over 3 h. The compound also displayed a mouse microsomal stability in [2] of under 0.50 mL/min/g liver. Besides, the Papp at 5 h, 10 µM in data set [3] was 0.23 ×10⁻⁶ cm/s. For the same compound, the chromatographic logD in “CHI Log D determination” is 1.3. Further, in data set [1], the ΔG result is “–9.02 ± 0.01 kcal/mol”, the ΔH result was “–7.2 ± 0.5 kcal/mol”, the “–TΔS” value is listed as “–1.8 ± 0.5 kcal/mol” and the “fold difference in binding affinity compared to VH032” value is listed as at most 2 fold.

As to `CC(=O)N[C@H](C(=O)N1C[C@H](O)[C@@H](F)[C@H]1C(=O)NCc1ccc(-c2scnc2C)cc1)C(C)(C)C` [14b], in the data set “Plasma stability”, the half-life at 10 µM is over 3 h. The mouse microsomal stability in data set [2] was 0.68 mL/min/g liver. This compound registered a Papp at 5 h, 10 µM in data set [3] of 0.081 ×10⁻⁶ cm/s. Moreover, the chromatographic logD in the data set “CHI Log D determination” turned out to be 1.3. Further, in [1], the ΔG result is “–7.55 ± 0.03 kcal/mol”; the ΔH result is “–3.9 ± 0.5 kcal/mol”; the “–TΔS” value is “–3.8 ± 0.4 kcal/mol”; the affinity, expressed as Kd, was 3080 nM. Moreover, the “fold difference in binding affinity compared to VH032” value in data set [1] is about 20 fold.

For the compound `Cc1ncsc1-c1ccc(CNC(=O)[C@@H]2C[C@@H](O)CN2C(=O)[C@@H](NC(=O)COCCOCCOCCNC(=O)C[C@@H]2N=C(c3ccc(Cl)cc3)c3c(sc(C)c3C)-n3c(C)nnc32)C(C)(C)C)cc1` [MZ1, reference compound], the “pEC50, antiproliferative activity” value in the data set on MV4;11 cells (72 h) was 7.3. Moreover, in the data set with MV4;11 cells (Homo sapiens, 72 h, read-out: Emax, maximal response at highest concentration), the Emax came out at 98%. The EC50 in the data set on MV4;11 cells (Homo sapiens, read-out: EC50, antiproliferative activity) was 54.7 nM; in the data set with MV4;11 cells (Homo sapiens, read-out: pEC50, antiproliferative activity (converted)), 54.7 nM. Besides, in the data set on A549 cells, the “effect on cell growth, colony formation (in words)” value was “profound concentration-dependent cytotoxicity”.

Regarding `CC(=O)N[C@H](C(=O)N1C[C@H](O)C[C@H]1C(=O)NCc1ccc(-c2scnc2C)cc1)C(C)(C)C` [VH032], the “CHI LogD7.4” value in [4] is reported as 0.90 ^a. The mouse microsomal stability in data set [5] is 0.70 ^a mL/min/g liver. In addition, the “plasma stability T1/2” value in data set [6] is on record as >180 ^a min.

These data come from PMC6430500, “3-Fluoro-4-hydroxyprolines: Synthesis, Conformational Analysis, and Stereoselective Recognition by the VHL E3 Ubiquitin Ligase for Targeted Protein Degradation” (Journal of the American Chemical Society, 2018).
